For one test, the target named is c-kit mutant D816V (Homo sapiens (Human), UniProt P10721, D816V/DEL694-753). As to the kind of experiment: c-Kit mutant D816V biochemical assay (AlphaScreen). The note with it: c-kit D816V biochemical inhibitory activity. The method, then:
The c-kit mutant D816V (or kinase domain thereof) is an active kinase in AlphaScreen. IC50 values are determined with respect to inhibition of c-Kit mutant D816V kinase activity, where inhibition of phosphorylation of a peptide substrate is measured as a function of compound concentration. Compounds to be tested were dissolved in DMSO to a concentration of 20 mM. These were diluted 30 μl into 120 μl of DMSO (4 mM) and 1 μl was added to an assay plate. These were then serially diluted 1:3 (50 μl to 100 μl DMSO) for a total of 8 points. Plates were prepared such that each kinase reaction is 20 μl in 1× kinase buffer (25 mM HEPES, pH 7.2, 8 mM MgCl2, 2 mM MnCl2, 50 mM NaCl, 0.01% Brij, 1 mM DTT, 0.01% BSA), 5% DMSO and 10 μM ATP. Substrate was 30 nM biotin-(E4Y)10 (EMD Millipore, Cat#12-440). C-kit mutant D816V kinase was at 0.75 ng per sample. After incubation of the kinase reaction for 30 minutes at room temperature, 5 μl of donor beads (Streptavidin coated beads (Perkin Elmer Life Science) final concentration 7.5 μg/ml) in stop buffer (25 mM Hepes pH 7.5, 100 mM EDTA, 0.01% BSA) was added, the sample was mixed and incubated for 20 minutes at room temperature before adding 5 μl of acceptor beads (PY20 coated beads (Perkin Elmer Life Science) final concentration 7.5 ug/ml) in stop buffer. The samples were incubated for 60 minutes at room temperature and the signal per well was read on EnVision reader. Phosphorylated substrate results in binding of the PY20 antibody and association of the donor and acceptor beads such that signal correlates with kinase activity. The signal vs. compound concentration was used to determine the IC50.
Recombinant c-kit mutant D816V (residues 551-934, kinase insertion domain residues 694-753 deleted) with a 6x-histidine N-terminal tag was expressed in E. coli Arctic Express (DE3) RIL (Stratagene). Cells were grown in Terrific Broth (TB) media to an OD600 of 0.6 at 37° C. at which temperature was reduced to 10° C., protein was induced with 1.0 mM IPTG for 18 hours and harvested by centrifugation at 8000×g for 20 minutes. Cells were re-suspended in 0.1M KPO4 pH 8.0, 250 mM NaCl, 10% Glycerol, 0.75% NP-40, 25 mM Imidazole, 5 mM BME with 0.2 mg/ml Lysosyme, 2.0 mM PMSF, 25 μg/ml DNAse I, incubated in ice for 30 minutes and lyzed with a cell disruptor (MicroFluidics). The lysate was clarified by centrifugation at 20,000×g for 2 hours. The protein was captured with Talon resin (Clontech). Contaminating proteins were washed off with 25 mM Tris-HCl pH 8.3, 250 mM NaCl, 15% Glycerol, 1% Triton X-100, and protein eluted using 100 mM EDTA. The protein was further purified using Gel Filtration column 26/600 Superdex 200 (GE) in 50 mM Tris-HCl, pH 8.0, 250 mM NaCl, 15% Glycerol, 5 mM BME. The protein was aliquoted and flash-frozen in liquid Nitrogen.

The test system of test [1] is BaF3-FL KIT D816V or BaF3-FL KIT V560G/D816V cell line. As to the kind of experiment: Cell-based assays of c-Kit mutant kinase activity (cell growth, ATPlite). The note with it: at least one of the c-kit cell assays of Example 26. In outline:
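IC50 derived from ATP-content luminescence (ATPlite) after three-day compound exposure at 37° C., 5% CO2. Cells: BaF3 rendered growth-dependent on full-length human KIT D816V or V560G/D816V, 1×10^4 per well, RPMI plus 10% FBS; 8 points, 1:3 steps, maximum 10 μM final, 0.2% DMSO.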

As usually defined, the IC50 is the midpoint of a concentration-inhibition curve. A higher IC50 goes with a need for much substance.

Chain of c-kit mutant D816V (P10721 other isoform, or with tags, fused parts or gaps D816V/del 694-753): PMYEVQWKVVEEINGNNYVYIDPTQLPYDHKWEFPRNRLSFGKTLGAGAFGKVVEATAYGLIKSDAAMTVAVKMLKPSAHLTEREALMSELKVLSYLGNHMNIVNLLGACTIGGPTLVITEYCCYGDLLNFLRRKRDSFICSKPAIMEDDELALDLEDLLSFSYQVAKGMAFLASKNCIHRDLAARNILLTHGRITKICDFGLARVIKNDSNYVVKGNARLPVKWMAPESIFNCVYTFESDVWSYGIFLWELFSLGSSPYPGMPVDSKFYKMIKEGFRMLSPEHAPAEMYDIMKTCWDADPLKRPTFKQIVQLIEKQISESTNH

Consider `Cc1n[nH]c(C(=O)Nc2cnc3[nH]c(-c4cccc(F)c4C)cc3c2)c1C` [P-2146, N-[2-(3-fluoro-2-methyl-phenyl)-1H-pyrrolo[2,3-b]pyridin-5-yl]-3,4-dimethyl-1H-pyrazole-5-carboxamide], for which the IC50 on c-kit mutant D816V was 0.0001 to 1 µM; in test [1], less than 10000 nM.
As to `Cc1n[nH]c(C(=O)Nc2cnc3[nH]c(-c4ccc(OCC5(C)COC5)cc4)cc3c2)c1C` [P-2149, 3,4-dimethyl-N-[2-[4-[(3-methyloxetan-3-yl)methoxy]phenyl]-1H-pyrrolo[2,3-b]pyridin-5-yl]-1H-pyrazole-5-carboxamide], the figures for the IC50 (on c-kit mutant D816V; in test [1]) were 0.0001 to 1 µM and less than 10000 nM, respectively.
The corresponding values for `Cc1n[nH]c(C(=O)Nc2cnc3[nH]c(-c4ccccc4)nc3c2)c1Cl` [P-2150, 4-chloro-3-methyl-N-(2-phenyl-3H-imidazo[4,5-b]pyridin-6-yl)-1H-pyrazole-5-carboxamide] are 0.0001 to 1 µM and less than 10000 nM.
As to `Cc1cc(C(=O)Nc2cnc3[nH]c(-c4ccccc4)nc3c2)[nH]n1` [P-2151, 3-methyl-N-(2-phenyl-3H-imidazo[4,5-b]pyridin-6-yl)-1H-pyrazole-5-carboxamide], the concentration for half-maximal inhibition (IC50) is 1 to 10 µM on c-kit mutant D816V and less than 10000 nM in test [1].
As to `Cc1n[nH]c(C(=O)Nc2cnc3[nH]c(-c4ccccc4F)nc3c2)c1C` [P-2152, N-[2-(2-fluorophenyl)-3H-imidazo[4,5-b]pyridin-6-yl]-3,4-dimethyl-1H-pyrazole-5-carboxamide], the IC50 is 0.0001 to 1 µM against c-kit mutant D816V and less than 10000 nM in test [1].
For the compound `CCOc1ncc(-c2cc3cc(NC(=O)c4[nH]nc(C)c4C)cnc3[nH]2)cn1` [P-2153, N-[2-(2-ethoxypyrimidin-5-yl)-1H-pyrrolo[2,3-b]pyridin-5-yl]-3,4-dimethyl-1H-pyrazole-5-carboxamide], the IC50 is 0.0001 to 1 µM at c-kit mutant D816V and less than 10000 nM in test [1].
`Cc1n[nH]c(C(=O)Nc2cnc3[nH]c(-c4cnc(C(C)C)nc4)cc3c2)c1C` [P-2154, N-[2-(2-isopropylpyrimidin-5-yl)-1H-pyrrolo[2,3-b]pyridin-5-yl]-3,4-dimethyl-1H-pyrazole-5-carboxamide]: the IC50 against c-kit mutant D816V is 0.0001 to 1 µM; in test [1] it was less than 10000 nM.
Consider `Cc1n[nH]c(C(=O)Nc2cnc3[nH]c(-c4cnc(C5CC5)nc4)cc3c2)c1C` [P-2155, N-[2-(2-cyclopropylpyrimidin-5-yl)-1H-pyrrolo[2,3-b]pyridin-5-yl]-3,4-dimethyl-1H-pyrazole-5-carboxamide], for which the IC50 is 0.0001 to 1 µM against c-kit mutant D816V and less than 10000 nM in test [1].
On to `Cc1n[nH]c(C(=O)Nc2cnc3[nH]c(-c4cnc(NC5CC5)nc4)cc3c2)c1C` [P-2157, N-[2-[2-(cyclopropylamino)pyrimidin-5-yl]-1H-pyrrolo[2,3-b]pyridin-5-yl]-3,4-dimethyl-1H-pyrazole-5-carboxamide], for which the IC50 on c-kit mutant D816V was 0.0001 to 1 µM; in test [1], less than 10000 nM.
Turning to `Cc1n[nH]c(C(=O)Nc2cnc3[nH]c(-c4cnc(N5CCOCC5)nc4)cc3c2)c1C` [P-2158, 3,4-dimethyl-N-[2-(2-morpholinopyrimidin-5-yl)-1H-pyrrolo[2,3-b]pyridin-5-yl]-1H-pyrazole-5-carboxamide], the IC50 is 0.0001 to 1 µM on c-kit mutant D816V and less than 10000 nM in test [1].
Regarding `CCc1cc(C(=O)Nc2cnc3[nH]c(-c4ccc(F)cc4)cc3c2)[nH]n1` [P-2159, 3-ethyl-N-[2-(4-fluorophenyl)-1H-pyrrolo[2,3-b]pyridin-5-yl]-1H-pyrazole-5-carboxamide], the IC50 was 0.0001 to 1 µM on c-kit mutant D816V and less than 10000 nM in test [1].
In the same order, the values of `Cc1cc(C#N)ccc1-c1cc2cc(NC(=O)c3[nH]nc(C)c3C)cnc2[nH]1` [P-2161, N-[2-(4-cyano-2-methyl-phenyl)-1H-pyrrolo[2,3-b]pyridin-5-yl]-3,4-dimethyl-1H-pyrazole-5-carboxamide] are 0.0001 to 1 µM and less than 10000 nM.
Take `COc1ccc(-c2cc3cc(NC(=O)c4[nH]nc(C)c4C)cnc3[nH]2)c(C)n1` [P-2169, N-[2-(6-methoxy-2-methyl-3-pyridyl)-1H-pyrrolo[2,3-b]pyridin-5-yl]-3,4-dimethyl-1H-pyrazole-5-carboxamide]: the values for the IC50 (at c-kit mutant D816V; in test [1]) were 0.0001 to 1 µM and less than 10000 nM, respectively.
The corresponding values for `O=C(Nc1cnc2[nH]c(-c3ccc(F)cc3)cc2c1)c1cc(C(F)F)n[nH]1` [P-2172, 3-(difluoromethyl)-N-[2-(4-fluorophenyl)-1H-pyrrolo[2,3-b]pyridin-5-yl]-1H-pyrazole-5-carboxamide] are 1 to 10 µM and less than 10000 nM.
In the case of `Cc1n[nH]c(C(=O)Nc2cnc3[nH]c(-c4ccnc(C(=O)NC5CC5)c4)cc3c2)c1C` [P-2175, N-cyclopropyl-4-[5-[(3,4-dimethyl-1H-pyrazole-5-carbonyl)amino]-1H-pyrrolo[2,3-b]pyridin-2-yl]pyridine-2-carboxamide], the IC50 is 0.0001 to 1 µM against c-kit mutant D816V and less than 10000 nM in test [1].
In the case of `COc1ccncc1-c1cc2cc(NC(=O)c3[nH]nc(C)c3C)cnc2[nH]1` [P-2185, N-[2-(4-methoxy-3-pyridyl)-1H-pyrrolo[2,3-b]pyridin-5-yl]-3,4-dimethyl-1H-pyrazole-5-carboxamide], the IC50 against c-kit mutant D816V is 0.0001 to 1 µM; in test [1] it was less than 10000 nM.
As for `Cc1n[nH]c(C(=O)Nc2cnc3[nH]c(I)cc3c2)c1C` [P-2188, N-(2-iodo-1H-pyrrolo[2,3-b]pyridin-5-yl)-3,4-dimethyl-1H-pyrazole-5-carboxamide], the figures for the IC50 (against c-kit mutant D816V; in test [1]) were 1 to 10 µM and less than 10000 nM, respectively.
For the compound `Cc1n[nH]c(C(=O)Nc2cnc3[nH]c(-c4ccc(F)nc4)cc3c2)c1C` [P-2269, N-[2-(6-fluoro-3-pyridyl)-1H-pyrrolo[2,3-b]pyridin-5-yl]-3,4-dimethyl-1H-pyrazole-5-carboxamide], the IC50 on c-kit mutant D816V is 0.0001 to 1 µM; in test [1] it was less than 10000 nM.
Take `Cc1n[nH]c(C(=O)Nc2cnc3[nH]c(-c4ccc(F)cc4)cc3c2)c1F` [P-2275, 4-fluoro-N-[2-(4-fluorophenyl)-1H-pyrrolo[2,3-b]pyridin-5-yl]-3-methyl-1H-pyrazole-5-carboxamide]: the results for the half-maximal inhibitory concentration (IC50) (at c-kit mutant D816V; in test [1]) were 0.0001 to 1 µM and less than 10000 nM, respectively.
Consider `Cc1n[nH]c(C(=O)Nc2cnc3[nH]c(-c4cccc(C(=O)NCC(C)C)c4)cc3c2)c1C` [P-2276, N-[2-[3-(isobutylcarbamoyl)phenyl]-1H-pyrrolo[2,3-b]pyridin-5-yl]-3,4-dimethyl-1H-pyrazole-5-carboxamide], for which the figures for the IC50 (against c-kit mutant D816V; in test [1]) were 0.0001 to 1 µM and less than 10000 nM, respectively.
With `Cc1nc(F)ccc1-c1cc2cc(NC(=O)c3[nH]nc(C)c3C)cnc2[nH]1` [P-2283, N-[2-(6-fluoro-2-methyl-3-pyridyl)-1H-pyrrolo[2,3-b]pyridin-5-yl]-3,4-dimethyl-1H-pyrazole-5-carboxamide], the values for the IC50 (against c-kit mutant D816V; in test [1]) were 0.0001 to 1 µM and less than 10000 nM, respectively.
Regarding `Cc1c(C(F)F)n[nH]c1C(=O)Nc1cnc2[nH]c(-c3ccc(F)cc3)cc2c1` [P-2287, 3-(difluoromethyl)-N-[2-(4-fluorophenyl)-1H-pyrrolo[2,3-b]pyridin-5-yl]-4-methyl-1H-pyrazole-5-carboxamide], the IC50 on c-kit mutant D816V is 0.0001 to 1 µM; in test [1], less than 10000 nM.
Turning to `O=C(Nc1cnc2[nH]c(I)cc2c1)c1cccc2n[nH]cc12` [P-2288, N-(2-iodo-1H-pyrrolo[2,3-b]pyridin-5-yl)-2H-indazole-4-carboxamide], the IC50 against c-kit mutant D816V was 1 to 10 µM; in test [1], less than 10000 nM.

The record behind these values is patent US10301280B2 (Plexxikon Inc., priority 2012, dated 2019).
